Results from US11185616B2, “Implantable medical products, a process for the preparation thereof, and use thereof” (priority 2016, dated 2021).

How the values were obtained:
[1] = test system: thromboxane A2 in platelets; settings: Köfeler et al. 2000; cited from earlier work
S. epidermidis RP62A = test: rifampicin resistance development, passaging experiment; assay type: cell-based; settings: parallel culture with rifampicin-MHC doping
Experimental: (§1) 10 ml tubes with Müller-Hinton broth (MHB) was brought to a concentration of about 10^6 CPU with 0.01 ml of an overnight culture with S. epidermidis RP62A and S. aureus ATCC, and provided with the respective MHC of rifampicin and miconazole. An aliquot was taken from the overnight cultures, brought into new MHB tubes (about 10^6 CPU), and again incubated over night. This was repeated up to 50 times, and the resistant isolates were frozen.

S. aureus ATCC = test: as above; assay type: cell-based; settings: parallel culture with rifampicin-MHC doping
Experimental: as §1

Row | SMILES | inhibition of synthesis of thromboxane A2 in platelets [1] | resistance frequencies (S. epidermidis RP62A) | resistance frequencies (S. aureus ATCC)
1 | Clc1ccccc1C(c1ccccc1)(c1ccccc1)n1ccnc1 [clotrimazole] | selectively inhibit | – | –
2 | Clc1ccc(COC(Cn2ccnc2)c2ccc(Cl)cc2Cl)c(Cl)c1 (stereo not shown) [Miconazole, miconazole] | selectively inhibit | – | –
3 | CO[C@H]1/C=C/O[C@@]2(C)Oc3c(C)c(O)c4c(O)c(c(/C=N/N5CCN(C)CC5)c(O)c4c3C2=O)NC(=O)/C(C)=C\C=C\[C@H](C)[C@H](O)[C@@H](C)[C@@H](O)[C@@H](C)[C@H](OC(C)=O)[C@@H]1C [rifampicin] | – | 10^−6 | 10^−6
